Earlier results on four substances are cited in patent US20250339514A1, “SINGLE-AND MULTI-EPITOPE PEPTIDE AND MRNA VACCINES TO GENERATE TOLEROGENIC EFFECTS FOR ALLERGIC AND AUTOIMMUNE DISEASE BY TARGETING LIVER SINUSOIDAL ENDOTHELIAL CELLS” (The Regents of the University of California, priority 2022, published 2025).

One data set concerns human T-cell lines. Particulars: T-cell lines isolated from 10 different donors; cited from earlier work.
Another data set relates to C57BL/6J mice. Particulars: inhalation of low peptide concentrations, naïve C57BL/6J mice; cited from earlier work.
For the next data set, the system named is lupus-prone mice. Particulars: subcutaneous every 2 weeks; cited from earlier work.
In the next data set the test system is MRL/lpr mice. Particulars: repeated administration; cited from earlier work.
The next data set deals with lupus patients. Particulars: Phase 1 and Phase 2 clinical trials; cited from earlier work.

“AH96-110: adalimumab HCDR3 peptide (CAKVSYLSTASSLDY; listed as Homo sapiens)”: the “recognition by T-cell lines” value in the data set with human T-cell lines is recorded as “recognized by the majority of T-cell lines”.

As for “Der p1 T-cell epitope (residues 111-139): major Der p1 T-cell epitope peptide (Hoyne et al.) (FGISNYCQIYPPNVNKIREALAQTHSAIA; UniProt P08176 209-237, looked up, fragment)”, in the data set with C57BL/6J mice, the tolerance induction entry is “capable of inducing tolerance”.

As for “H4 aa 71-94: nucleosomal histone H4 peptide autoepitope”, the efficacy of autoepitope result with lupus-prone mice is “most effective autoepitope”.

Turning to RIHMVYSKRpSGKPRGYAFIEY [P140], the “T-cell epitope spreading to other U1-70K regions” value in the data set with MRL/lpr mice is recorded as “transiently abolishing T-cell epitope spreading”. In addition, in the data set on lupus patients, the clinical efficacy result was “effective in treating lupus patients”.
